EC50 data for one molecule are collected here from publication PMC5504036, “A tricyclic antidepressant, amoxapine, reduces amyloid-β generation through multiple serotonin receptor 6-mediated targets” (Scientific Reports, 2017).

One may read the EC50 as the concentration at which the effect is half-maximal. A high value points to weaker potency.

In this experiment the target is T1, serotonin receptor 6 (HTR6) (Homo sapiens, UniProt P50406).
T1 construct: human HTR6 expressed by lentivirus in SK-N-SH cells
T1 sequence (P50406 whole entry): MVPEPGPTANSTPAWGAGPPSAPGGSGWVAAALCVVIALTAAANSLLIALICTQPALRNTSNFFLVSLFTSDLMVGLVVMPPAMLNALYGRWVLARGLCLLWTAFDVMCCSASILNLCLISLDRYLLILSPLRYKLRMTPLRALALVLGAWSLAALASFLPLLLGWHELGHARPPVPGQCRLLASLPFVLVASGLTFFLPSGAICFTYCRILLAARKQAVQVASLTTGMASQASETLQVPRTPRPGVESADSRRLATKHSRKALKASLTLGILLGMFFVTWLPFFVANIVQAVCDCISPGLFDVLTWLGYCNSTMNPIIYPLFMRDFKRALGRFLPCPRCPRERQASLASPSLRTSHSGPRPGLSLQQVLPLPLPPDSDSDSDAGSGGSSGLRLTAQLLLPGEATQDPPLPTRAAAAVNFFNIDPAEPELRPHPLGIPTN
Put plainly: GloSensor cAMP assay (agonist) in SK-N-SH cells infected with HTR6 lentivirus. It is filed as cell-based. On the technique in general: Cyclic AMP is a second messenger, typically raised through Gs and lowered through Gi signalling.

The molecule `Cc1[nH]c2ccc(Cl)cc2c1CCN(C)C` [ST1936] had a 50% effective concentration (EC50) of 1.7 nM.
